Measurements taken from ChEMBL document CHEMBL1201862, “PubChem BioAssay data set” (2004).
Activity calls are given as the source filed them.

Key:
Large T antigen = Large T antigen (Simian virus 40, UniProt P03070); type: functional, Betapolyomavirus macacae;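 also: Confirmatory-stage PubChem screen for compounds that inhibit SV40 T antigen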
[1] = target: Induced myeloid leukemia cell differentiation protein Mcl-1 (Homo sapiens, UniProt Q07820); type: functional
[2] = target: T1, Mannose-6-phosphate isomerase (Homo sapiens, UniProt P34949); assay: human PMI inhibitors, high substrate, primary screen, biochemical, fluorescence intensity, high mannose 6-phosphate (AID 1220)
T1 sequence (P34949 whole entry): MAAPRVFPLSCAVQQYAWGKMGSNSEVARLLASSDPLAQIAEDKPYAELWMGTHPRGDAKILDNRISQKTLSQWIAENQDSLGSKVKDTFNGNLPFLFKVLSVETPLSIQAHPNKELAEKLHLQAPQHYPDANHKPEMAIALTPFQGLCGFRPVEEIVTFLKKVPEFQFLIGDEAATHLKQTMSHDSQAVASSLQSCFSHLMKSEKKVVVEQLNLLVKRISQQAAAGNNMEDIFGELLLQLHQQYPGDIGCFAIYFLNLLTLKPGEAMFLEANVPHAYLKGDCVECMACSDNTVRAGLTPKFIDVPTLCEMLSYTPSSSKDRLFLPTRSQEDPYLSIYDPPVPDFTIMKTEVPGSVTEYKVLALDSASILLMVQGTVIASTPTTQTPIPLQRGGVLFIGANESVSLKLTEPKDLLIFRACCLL

[3] = target: T2, Peroxisome proliferator-activated receptor gamma/Nuclear receptor coactivator 1 (Homo sapiens, UniProt P37231); assay: (§1) TR-FRET dose response biochemical High Throughput Screening assay for agonists of the steroid receptor coactivator 1 (SRC-1) recruitment by the peroxisome proliferator-activated receptor gamma (PPAR gamma): non-selective agonists. [Related pubchem assays (depositor defined):AID1300, AID1808, AID504735, AID631]; type: protein assay
[4] = target: T3, Peroxisome proliferator-activated receptor gamma/Nuclear receptor coactivator 3 (Homo sapiens, UniProt P37231); assay: as §1, with “3 (SRC-3)” for “1 (SRC-1)”, “assays: 1301 (Confirmation screen.), 1048 (Primary screen.)]” for “assays (depositor defined):AID1300, AID1808, AID504735, AID631]”; type: functional
[5] = target: T4, Peroxisome proliferator-activated receptor gamma/Nuclear receptor coactivator 2 (Homo sapiens, UniProt P37231); assay: TR-FRET dose response biochemical High Throughput Screening assay for agonists of the steroid receptor coactivator 2 (SRC-2) recruitment by the peroxisome proliferator-activated receptor gamma (PPAR gamma): non-selective agonists. [Related pubchem assays: 1297, 1032 ]; type: functional
[6] = target: T4, Peroxisome proliferator-activated receptor gamma/Nuclear receptor coactivator 2; type: functional
[7] = target: T2, Peroxisome proliferator-activated receptor gamma/Nuclear receptor coactivator 1; type: functional
[8] = target: T3, Peroxisome proliferator-activated receptor gamma/Nuclear receptor coactivator 3; type: functional
[9] = target: Dual specificity tyrosine-phosphorylation-regulated kinase 1A (Rattus norvegicus, UniProt Q63470); type: biochemical, Homo sapiens
Prothrombin = Prothrombin (Homo sapiens, UniProt P00734); assay: Thrombin 1536 HTS Dose Response Confirmation. [Related pubchem assays: 1046 (Thrombin 1536 HTS; hits were confirmed in this assay)]; type: functional
[10] = target: Eukaryotic translation initiation factor 4E (Mus musculus, UniProt P63073); assay: eIF4E–eIF4G protein interaction inhibitors, dose response, biochemical, TR-FRET (AID 855); type: functional;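 also: potency for disrupting eIF4E binding to eIF4GI seen as loss of FRET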
[11] = target: DNA dC->dU-editing enzyme APOBEC-3G (Homo sapiens, UniProt Q9HC16); assay: Dose Response confirmation of small molecule APOBEC3G DNA Deaminase Inhibitors via a fluorescence-based single-stranded DNA deaminase assay. [Related pubchem assays (depositor defined):AID493012, AID493028]; type: functional
Estrogen receptor = target: T5, Estrogen receptor (Homo sapiens, UniProt P03372);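 also: potency for inhibiting coactivator peptide recruitment to the receptor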
T5 sequence (P03372 whole entry): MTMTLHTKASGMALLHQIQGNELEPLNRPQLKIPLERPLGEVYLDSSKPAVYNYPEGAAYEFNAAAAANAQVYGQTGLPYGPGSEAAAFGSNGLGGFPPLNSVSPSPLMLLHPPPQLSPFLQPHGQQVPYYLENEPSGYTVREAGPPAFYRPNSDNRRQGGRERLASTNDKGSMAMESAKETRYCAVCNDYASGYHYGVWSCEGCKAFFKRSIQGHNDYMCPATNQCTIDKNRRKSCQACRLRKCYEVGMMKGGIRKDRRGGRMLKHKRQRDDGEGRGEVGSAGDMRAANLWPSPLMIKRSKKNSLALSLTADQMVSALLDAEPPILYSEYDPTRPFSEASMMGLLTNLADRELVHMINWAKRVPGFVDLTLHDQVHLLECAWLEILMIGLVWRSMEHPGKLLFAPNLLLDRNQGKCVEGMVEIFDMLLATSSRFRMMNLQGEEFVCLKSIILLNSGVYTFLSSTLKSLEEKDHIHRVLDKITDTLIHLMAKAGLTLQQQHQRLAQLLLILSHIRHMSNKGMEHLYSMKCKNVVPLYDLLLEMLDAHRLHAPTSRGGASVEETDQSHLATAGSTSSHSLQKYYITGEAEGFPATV

[12] = target: Voltage-dependent T-type calcium channel subunit alpha-1H (Homo sapiens, UniProt O95180); type: functional;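 also: channel activity triggered by adding a high calcium stimulation buffer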
Escherichia coli = assay: microbe, parasite or virus in culture
CAAX prenyl protease 2 = target: T6, CAAX prenyl protease 2 (Saccharomyces cerevisiae S288c, UniProt Q03530); type: biochemical
T6 sequence (Q03530 whole entry): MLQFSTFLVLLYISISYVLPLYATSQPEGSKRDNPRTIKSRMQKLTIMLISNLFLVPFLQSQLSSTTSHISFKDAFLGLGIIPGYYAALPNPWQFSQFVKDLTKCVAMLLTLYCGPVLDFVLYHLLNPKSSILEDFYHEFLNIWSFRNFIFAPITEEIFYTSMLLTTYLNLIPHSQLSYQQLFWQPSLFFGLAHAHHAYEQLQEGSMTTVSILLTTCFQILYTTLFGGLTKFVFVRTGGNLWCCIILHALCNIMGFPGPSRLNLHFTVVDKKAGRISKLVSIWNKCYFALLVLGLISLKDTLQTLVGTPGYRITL

Estrogen receptor beta = Estrogen receptor beta (Homo sapiens, UniProt Q92731);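 also: recombinant ER-beta bound to coactivator SRC1 peptide in presence of estradiol agonist; inhibitors block coactivator peptide binding and lower the FRET signal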
Cytochrome P450 3A4 = Cytochrome P450 3A4 (Homo sapiens, UniProt P08684);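 also: CYP3A4 tested as one member of a cytochrome P450 panel screen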
Cytochrome P450 2C9 [13] = target: T7, Cytochrome P450 2C9 (Homo sapiens, UniProt P11712)
Cytochrome P450 2C9 [14] = target: T7, Cytochrome P450 2C9; remark: listed apart in the source
[15] = target: Glyceraldehyde-3-phosphate dehydrogenase (Homo sapiens, UniProt P04406)
[16] = target: T8, Alkaline phosphatase, tissue-nonspecific isozyme (Homo sapiens, UniProt P05186); assay: human TNAP enzyme inhibitors, SAR follow-up, biochemical, luminescent, dose response (AID 1056)
T8 sequence (P05186 whole entry): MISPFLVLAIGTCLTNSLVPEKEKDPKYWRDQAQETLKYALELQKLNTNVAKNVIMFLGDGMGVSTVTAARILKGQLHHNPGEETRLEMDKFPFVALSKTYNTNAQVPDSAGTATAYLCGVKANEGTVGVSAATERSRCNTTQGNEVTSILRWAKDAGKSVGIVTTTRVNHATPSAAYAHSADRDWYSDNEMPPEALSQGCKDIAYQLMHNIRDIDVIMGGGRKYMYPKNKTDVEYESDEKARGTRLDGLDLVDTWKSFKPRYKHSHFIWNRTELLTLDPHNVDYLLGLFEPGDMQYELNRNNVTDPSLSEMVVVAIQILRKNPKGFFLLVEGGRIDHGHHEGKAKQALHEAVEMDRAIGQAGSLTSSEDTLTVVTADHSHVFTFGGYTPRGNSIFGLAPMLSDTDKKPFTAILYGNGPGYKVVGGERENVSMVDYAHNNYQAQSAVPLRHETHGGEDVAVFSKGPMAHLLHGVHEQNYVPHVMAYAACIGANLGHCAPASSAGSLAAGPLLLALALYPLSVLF

Cytochrome P450 2C19 = Cytochrome P450 2C19 (Homo sapiens, UniProt P33261); assay: Cytochrome panel assay with activity outcomes. Panel member name: p450-cyp2c19 Compounds with AC50 equal or less than 10 uM are considered active; type: functional; details: read-out: AC50
[17] = target: FAD-linked sulfhydryl oxidase ALR (Homo sapiens, UniProt P55789); assay: inhibitors of human ALR sulfhydryl oxidase, dose response, biochemical, H2O2 detection, luminescence, cherry-pick (AID 493248)
FAD-linked sulfhydryl oxidase ALR, sequence (P55789 whole entry): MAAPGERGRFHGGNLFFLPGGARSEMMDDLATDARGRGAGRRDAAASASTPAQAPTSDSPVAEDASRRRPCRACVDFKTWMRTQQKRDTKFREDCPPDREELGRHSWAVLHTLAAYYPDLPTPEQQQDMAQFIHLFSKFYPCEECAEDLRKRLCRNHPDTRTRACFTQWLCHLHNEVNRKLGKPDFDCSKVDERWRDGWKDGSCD

Voltage-dependent T-type calcium channel subunit alpha-1H, sequence (O95180 whole entry): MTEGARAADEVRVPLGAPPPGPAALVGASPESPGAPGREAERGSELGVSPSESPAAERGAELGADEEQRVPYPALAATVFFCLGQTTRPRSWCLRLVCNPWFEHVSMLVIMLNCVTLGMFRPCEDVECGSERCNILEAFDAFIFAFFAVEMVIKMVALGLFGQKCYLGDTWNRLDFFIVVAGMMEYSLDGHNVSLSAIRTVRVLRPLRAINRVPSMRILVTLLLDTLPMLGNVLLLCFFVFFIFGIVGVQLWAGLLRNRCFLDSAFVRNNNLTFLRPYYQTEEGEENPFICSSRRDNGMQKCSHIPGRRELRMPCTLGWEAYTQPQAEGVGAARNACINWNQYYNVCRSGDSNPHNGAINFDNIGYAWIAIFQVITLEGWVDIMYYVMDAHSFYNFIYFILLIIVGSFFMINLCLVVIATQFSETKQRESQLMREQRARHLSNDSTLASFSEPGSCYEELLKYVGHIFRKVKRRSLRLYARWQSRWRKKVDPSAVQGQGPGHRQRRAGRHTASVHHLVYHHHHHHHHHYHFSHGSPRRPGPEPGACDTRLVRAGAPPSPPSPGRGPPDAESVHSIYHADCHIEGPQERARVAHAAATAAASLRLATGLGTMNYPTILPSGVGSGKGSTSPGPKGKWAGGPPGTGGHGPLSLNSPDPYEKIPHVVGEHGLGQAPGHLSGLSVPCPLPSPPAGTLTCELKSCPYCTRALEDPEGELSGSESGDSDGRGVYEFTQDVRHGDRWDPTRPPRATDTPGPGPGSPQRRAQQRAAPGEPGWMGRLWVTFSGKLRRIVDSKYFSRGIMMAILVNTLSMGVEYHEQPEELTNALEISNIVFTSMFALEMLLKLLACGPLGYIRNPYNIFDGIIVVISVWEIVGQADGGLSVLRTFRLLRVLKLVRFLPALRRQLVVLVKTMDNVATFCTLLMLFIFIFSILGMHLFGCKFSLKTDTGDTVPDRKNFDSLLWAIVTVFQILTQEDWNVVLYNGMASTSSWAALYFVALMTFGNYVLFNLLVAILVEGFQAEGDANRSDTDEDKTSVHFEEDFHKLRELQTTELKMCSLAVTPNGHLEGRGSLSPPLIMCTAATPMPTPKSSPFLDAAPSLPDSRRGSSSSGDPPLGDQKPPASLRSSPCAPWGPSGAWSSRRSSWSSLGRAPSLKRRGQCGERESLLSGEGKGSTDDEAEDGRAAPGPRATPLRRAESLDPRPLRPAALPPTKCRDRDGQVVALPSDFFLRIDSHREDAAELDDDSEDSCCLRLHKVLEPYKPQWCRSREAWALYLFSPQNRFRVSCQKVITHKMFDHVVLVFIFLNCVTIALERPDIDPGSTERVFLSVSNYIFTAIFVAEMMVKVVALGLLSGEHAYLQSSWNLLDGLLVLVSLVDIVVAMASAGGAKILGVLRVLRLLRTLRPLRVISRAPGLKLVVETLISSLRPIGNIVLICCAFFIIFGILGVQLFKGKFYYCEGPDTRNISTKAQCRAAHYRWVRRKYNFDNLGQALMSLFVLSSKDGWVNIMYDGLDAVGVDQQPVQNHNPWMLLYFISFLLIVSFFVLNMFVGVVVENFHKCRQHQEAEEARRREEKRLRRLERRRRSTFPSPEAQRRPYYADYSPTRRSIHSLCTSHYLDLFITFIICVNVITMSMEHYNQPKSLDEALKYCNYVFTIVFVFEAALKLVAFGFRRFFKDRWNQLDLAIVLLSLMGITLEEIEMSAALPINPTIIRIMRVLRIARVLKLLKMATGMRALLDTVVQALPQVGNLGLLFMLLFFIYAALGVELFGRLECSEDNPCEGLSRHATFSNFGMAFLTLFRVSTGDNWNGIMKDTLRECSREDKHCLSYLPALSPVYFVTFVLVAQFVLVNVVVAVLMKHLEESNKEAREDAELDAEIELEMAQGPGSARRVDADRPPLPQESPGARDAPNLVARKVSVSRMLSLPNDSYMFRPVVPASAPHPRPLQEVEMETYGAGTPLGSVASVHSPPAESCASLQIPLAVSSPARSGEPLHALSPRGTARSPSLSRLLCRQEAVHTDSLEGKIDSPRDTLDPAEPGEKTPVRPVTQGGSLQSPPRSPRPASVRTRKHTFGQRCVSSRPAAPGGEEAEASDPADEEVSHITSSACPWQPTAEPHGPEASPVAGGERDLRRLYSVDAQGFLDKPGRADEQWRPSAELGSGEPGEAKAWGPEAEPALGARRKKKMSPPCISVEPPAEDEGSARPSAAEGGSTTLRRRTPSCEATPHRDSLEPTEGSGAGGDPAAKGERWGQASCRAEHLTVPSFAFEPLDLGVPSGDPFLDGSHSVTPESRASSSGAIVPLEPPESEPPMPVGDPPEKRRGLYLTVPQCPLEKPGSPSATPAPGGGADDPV
T4 sequence (P37231 whole entry): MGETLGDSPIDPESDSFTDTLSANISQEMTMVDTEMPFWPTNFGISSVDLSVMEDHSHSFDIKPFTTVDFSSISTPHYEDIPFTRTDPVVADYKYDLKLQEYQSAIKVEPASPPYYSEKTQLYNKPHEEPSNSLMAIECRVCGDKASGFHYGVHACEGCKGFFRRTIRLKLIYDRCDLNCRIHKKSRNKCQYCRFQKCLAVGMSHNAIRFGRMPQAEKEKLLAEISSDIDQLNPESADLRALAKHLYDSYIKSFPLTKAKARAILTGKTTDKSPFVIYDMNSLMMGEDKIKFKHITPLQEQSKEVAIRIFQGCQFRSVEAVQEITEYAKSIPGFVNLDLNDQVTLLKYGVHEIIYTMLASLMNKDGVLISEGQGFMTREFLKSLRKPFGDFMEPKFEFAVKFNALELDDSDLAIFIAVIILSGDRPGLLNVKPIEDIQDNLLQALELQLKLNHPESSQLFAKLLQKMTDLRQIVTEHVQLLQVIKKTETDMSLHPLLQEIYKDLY
T4 sequence (Q15596 whole entry, further chain): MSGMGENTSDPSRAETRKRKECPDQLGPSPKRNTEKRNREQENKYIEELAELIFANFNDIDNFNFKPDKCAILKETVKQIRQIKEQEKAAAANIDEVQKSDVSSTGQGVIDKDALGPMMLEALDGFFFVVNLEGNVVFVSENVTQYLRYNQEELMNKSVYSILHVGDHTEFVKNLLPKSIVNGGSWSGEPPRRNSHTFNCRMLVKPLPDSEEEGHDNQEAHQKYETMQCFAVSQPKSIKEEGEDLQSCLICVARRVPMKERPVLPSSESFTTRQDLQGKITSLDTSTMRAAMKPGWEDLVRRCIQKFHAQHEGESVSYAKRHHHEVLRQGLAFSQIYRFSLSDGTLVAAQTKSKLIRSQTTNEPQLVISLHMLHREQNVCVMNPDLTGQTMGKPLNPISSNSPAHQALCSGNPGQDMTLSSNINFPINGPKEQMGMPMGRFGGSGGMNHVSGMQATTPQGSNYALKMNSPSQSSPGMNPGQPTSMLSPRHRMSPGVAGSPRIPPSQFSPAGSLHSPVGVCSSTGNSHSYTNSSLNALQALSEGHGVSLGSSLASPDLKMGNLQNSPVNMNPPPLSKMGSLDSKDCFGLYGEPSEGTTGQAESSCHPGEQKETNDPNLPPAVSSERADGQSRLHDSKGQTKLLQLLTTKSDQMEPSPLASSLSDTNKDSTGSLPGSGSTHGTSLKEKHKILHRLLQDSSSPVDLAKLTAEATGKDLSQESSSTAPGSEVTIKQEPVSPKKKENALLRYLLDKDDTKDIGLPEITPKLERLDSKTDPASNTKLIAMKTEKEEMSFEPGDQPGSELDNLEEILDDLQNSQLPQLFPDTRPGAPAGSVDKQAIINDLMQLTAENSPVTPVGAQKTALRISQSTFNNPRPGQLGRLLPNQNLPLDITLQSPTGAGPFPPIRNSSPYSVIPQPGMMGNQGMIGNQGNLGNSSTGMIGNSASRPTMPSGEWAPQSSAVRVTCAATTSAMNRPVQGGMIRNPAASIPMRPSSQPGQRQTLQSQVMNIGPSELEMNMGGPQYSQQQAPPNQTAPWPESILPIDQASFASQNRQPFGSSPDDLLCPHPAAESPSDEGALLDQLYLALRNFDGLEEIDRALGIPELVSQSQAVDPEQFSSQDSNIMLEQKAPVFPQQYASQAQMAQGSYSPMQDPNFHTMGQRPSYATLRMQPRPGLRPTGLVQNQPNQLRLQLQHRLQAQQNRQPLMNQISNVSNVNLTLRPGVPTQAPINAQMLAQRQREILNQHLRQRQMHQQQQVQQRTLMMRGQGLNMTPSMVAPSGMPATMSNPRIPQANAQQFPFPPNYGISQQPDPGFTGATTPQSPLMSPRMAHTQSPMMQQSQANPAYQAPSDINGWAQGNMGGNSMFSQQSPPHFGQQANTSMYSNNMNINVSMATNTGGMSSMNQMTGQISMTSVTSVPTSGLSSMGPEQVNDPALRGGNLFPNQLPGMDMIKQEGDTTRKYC
Glyceraldehyde-3-phosphate dehydrogenase, sequence (P04406 whole entry): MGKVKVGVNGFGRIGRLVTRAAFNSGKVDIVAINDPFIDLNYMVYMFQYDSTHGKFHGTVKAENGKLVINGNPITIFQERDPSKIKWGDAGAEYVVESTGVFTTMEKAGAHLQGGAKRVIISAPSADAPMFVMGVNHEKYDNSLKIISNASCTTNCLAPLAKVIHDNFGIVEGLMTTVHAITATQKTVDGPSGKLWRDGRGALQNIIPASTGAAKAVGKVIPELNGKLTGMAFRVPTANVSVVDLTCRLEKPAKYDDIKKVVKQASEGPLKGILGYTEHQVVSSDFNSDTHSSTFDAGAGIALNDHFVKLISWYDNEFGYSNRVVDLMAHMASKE
Eukaryotic translation initiation factor 4E, sequence (P63073 whole entry): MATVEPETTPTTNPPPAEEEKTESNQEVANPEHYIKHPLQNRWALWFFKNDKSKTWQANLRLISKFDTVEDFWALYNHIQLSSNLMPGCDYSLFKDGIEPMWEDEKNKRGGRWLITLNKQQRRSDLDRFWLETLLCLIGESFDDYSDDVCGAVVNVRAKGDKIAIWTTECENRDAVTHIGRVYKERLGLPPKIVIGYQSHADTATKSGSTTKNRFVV

## COc1ccc(N2CCC(CNC(=O)Nc3cccc(OC)c3)C2)cc1 (stereo unspecified)
Large T antigen
  IC50: 43.3 µM (active)
[1]
  IC50: 3.18 µM (not active)
[2]
  IC50: > 50 µM (not active)

## Cn1c(S)nnc1-c1sc2cc(C(F)(F)F)cnc2c1-c1cccs1
[3]
  EC50: 6.65 µM (active)
[4]
  EC50: 34 µM (not active)
[5]
  EC50: 12.6 µM (not active)

## COc1ccc(C(=O)C(C)(C)NO)cc1
[6]
  EC50: > 79.4 µM (not active)
[7]
  EC50: > 79.4 µM (not active)
[8]
  EC50: > 79.4 µM (not active)

## C[N+](C)(CCOc1ccccc1)Cc1ccccc1.O=C([O-])c1cc2ccccc2c(Br)c1O
[9]
  AC50: 0.517 µM (active)

## O=C(NCc1ccco1)c1cnc2ccc(S(=O)(=O)N3CCOCC3)cc2c1O
Prothrombin
  IC50: 0.943 µM (active)

## Clc1ccc(Cl)c(-c2nn3c(COc4ccccc4)nnc3s2)c1
[10]
  IC50: > 64 µM (inactive)
[11]
  IC50: 37 µM (active)

## COc1ccc(-c2cc(-c3cccs3)c(C#N)c(SCC(=O)NCc3ccco3)n2)cc1
Estrogen receptor
  IC50: > 50 µM (not active)

## CCCn1cc(SCC(=O)Nc2ccc3c(c2)OCO3)c2ccccc21
[12]
  EC50: 5.11 µM (active)

## O=C(Nc1ccccc1Cl)C1CCN(Cc2cnn(-c3ccccc3)c2-n2cccc2)CC1
[12]
  EC50: 2.74 µM (active)

## CN(CCCNC(=O)CSc1cc(=O)n(C)c2ccc(Cl)cc12)Cc1ccccc1
[3]
  EC50: > 79.4 µM (inactive)
[4]
  EC50: > 79.4 µM (not active)
[5]
  EC50: > 79.4 µM (not active)

## COc1cc(OC)c(C2CC(=O)N3CN(C)CSC3=C2C#N)cc1OC (stereo unspecified)
Large T antigen
  IC50: 61.1 µM (active)
[2]
  IC50: 23.1 µM (active)

## CC(=O)Nc1cccc(NC(=O)c2cc3ccccc3o2)c1
[9]
  AC50: 11.5 µM (active)

## Cn1c(=O)cc(SCC(=O)NCCCN2CCN(c3ccccc3F)CC2)c2ccccc21
[3]
  EC50: > 79.4 µM (inactive)
[4]
  EC50: > 79.4 µM (not active)
[5]
  EC50: > 79.4 µM (not active)

## Cc1ccc(C)c(NC(=O)CCN2CCc3ccccc3C2)c1
Escherichia coli
  AC50: 58.7 µM (active)

## Cc1cc2cc(CCNC(=O)c3c(-c4ccccc4Cl)noc3C)c(=O)[nH]c2cc1C
[12]
  EC50: 4.77 µM (active)

## CN(C)CCN(C(=O)c1ccc2ccccc2c1)c1nc2ccc(F)cc2s1
CAAX prenyl protease 2
  AC50: 6.44 µM (active)

## CCOc1ccc(C(=O)CCN2CCCCC2)cc1
Estrogen receptor beta
  IC50: > 50 µM (not active)

## O=C(CSc1cccc(C(F)(F)F)c1)NC(=O)NCc1ccco1
Estrogen receptor
  IC50: > 50 µM (not active)
[12]
  EC50: 1.67 µM (active)

## CCOC(=O)c1c(NC(=O)CSc2nnc(CNc3ccc(F)cc3)o2)sc(C(C)=O)c1C
[6]
  EC50: 42.5 µM (not active)
[7]
  EC50: 54.3 µM (not active)
[8]
  EC50: > 79.4 µM (not active)

## N#Cc1c(-c2ccccc2)cc(C2CC2)nc1SCC(=O)c1cccs1
[3]
  EC50: 7.51 µM (active)
[4]
  EC50: 20.6 µM (not active)
[5]
  EC50: 7.18 µM (active)
Cytochrome P450 3A4
  AC50: 14.1 µM (inconclusive)
Cytochrome P450 2C9 [13]
  AC50: 0.0447 µM (inconclusive)

## CC(C(=O)NCc1ccc2c(c1)OCO2)N1c2cccc3cccc(c23)S1(=O)=O (stereo unspecified)
[12]
  EC50: 9.35 µM (active)
Cytochrome P450 2C9 [14]
  AC50: inconclusive

## O=C(O)c1cc(-c2ccc(O)cc2)n[nH]1
[15]
  IC50: > 100 µM (not active)
[16]
  IC50: 14 µM (active)

## O=C(Oc1ccc2c(c1)OCC2=O)c1ccccc1
Estrogen receptor beta
  IC50: > 50 µM (not active)

## COc1ccc(-c2cc(C(=O)O)n[nH]2)cc1
[15]
  IC50: > 100 µM (not active)
[16]
  IC50: 6.72 µM (active)

## COc1cccc(Cc2nnc(N3C(=O)[C@H]4CC=CC[C@H]4C3=O)[nH]2)c1
[15]
  IC50: > 100 µM (not active)
[16]
  IC50: 2.48 µM (active)

## O=C(NCc1ccccn1)c1cn(-c2ccccc2)nc1-c1ccc(Cl)cc1
Prothrombin
  IC50: > 50 µM (not active)

## COc1ccc(/C=C/C(=O)OCc2cc(=O)n3c(n2)sc2ccccc23)cc1
Escherichia coli
  AC50: > 150 µM (inactive)

## COc1cccc(C(=O)n2c(SC)nc3cc4c(cc32)OCCO4)c1
Prothrombin
  IC50: 0.0235 µM (active)
Cytochrome P450 2C19
  AC50: 35.5 µM (inconclusive)

## O=C(NCc1ccccc1)c1[nH]cnc1C(=O)N1CCN(c2ccccc2)CC1
[17]
  AC50: 6.21 µM (active)
Escherichia coli
  AC50: 38.8 µM (active)

## Cc1ccc(C(=O)N2CC2C)cc1 (stereo unspecified)
Escherichia coli
  AC50: 25.4 µM (active)

## CCc1nc(/C=C2\C(=O)Nc3ccccc32)c[nH]1
[9]
  AC50: 10.5 µM (active)

## C(=N\c1cccc2c(/N=C/c3ccco3)cccc12)/c1ccco1
[2]
  IC50: > 50 µM (not active)

## COc1cccc(/C=c2/s/c(=C(\C#N)C(=O)N3CCOCC3)n(-c3ccccc3)c2=O)c1
[6]
  EC50: > 79.4 µM (not active)
[7]
  EC50: > 79.4 µM (not active)
[8]
  EC50: > 79.4 µM (not active)

## CC(CO)(CO)NCc1ccc(-c2ccccc2)cc1
Prothrombin
  IC50: > 50 µM (not active)
